In publication PMC6837341, “Evolutionarily conserved susceptibility of the mitochondrial respiratory chain to SDHI pesticides and its consequence on the impact of SDHIs on human cultured cells” (PLoS ONE, 2019):

Key:
[1] = according to European regulations; ref European regulations; cited from earlier work
[2] = molecular target: T1, glycerol-3-phosphate cytochrome c reductase (G3PDH+CIII) (Homo sapiens, UniProt P00156); test: Glycerol-3-phosphate cytochrome c reductase (GCCR) activity, freeze-thawed HEK cells; assay type: biochemical
T1 construct: the pellets were permeabilized by two freeze-thaw cycles before enzyme assays; endogenous in cells; host or cells: HEK293, freeze-thawed cell pellets
Method: (§1) The cells were grown in T75 flasks using 10 ml Dulbecco’s modified Eagle's minimal essential medium (DMEM) either containing 1 or 4.5 g/l glucose, 4 mM glutamine (glutamax; Gibco Thermo Fisher Scientific, MA), 2 mM pyruvate and 200 μM uridine (permissive medium, thereafter referred as GlucoMax) or lacking glucose, pyruvate and uridine but containing 4 mM glutamine (nonpermissive medium, thereafter referred as MitoMax; S1 Table). All media were supplemented with 10% fetal calf serum and 100 U/mL each penicillin and streptomycin. HEK293 human embryonic kidney cells were cultured in DMEM containing 4.5 g/L glucose, 4 mM glutamine, 10% fetal calf serum, 200 μM uridine, 2 mM pyruvate, and 100 U/mL each penicillin and streptomycin [9]. Cell pellets (1,500 g for 5 min) were kept frozen (-80°C), and for biochemical studies, the pellets were permeabilized by two freeze-thaw cycles before enzyme assays.
(§2) RC enzyme activities were spectrophotometrically measured using a pseudo-double-wavelength spectrophotometer (Cary 60, Agilent). Malonate-sensitive succinate quinone dichlorophenolindophenol (DCPIP) reductase (SQDR), as an indicator of the activity of the isolated SDH enzyme (isolated CII), and glycerol-3-phosphate quinone DCPIP reductase (GQDR), as a measure of the activity of the isolated glycerol-3-phosphate dehydrogenase (G3PDH), were assayed as previously described. To study the effect of SDHIs on the RC, we had to take into consideration the fact that these inhibitors act through binding to quinone-binding sites in the RC. Accordingly, we observed that the extent of the inhibitory effects of these substances varies with the addition of exogenous quinones (Fig 1). […] With this aim, we measured the malonate-sensitive succinate cytochrome c reductase (SDH+CIII), glycerol-3-phosphate cytochrome c reductase (G3PDH+CIII) and antimycin-sensitive quinol cytochrome c reductase (CIII) as previously described.
(§3) The effects of eight different SDHIs (up to 500 μM; S2 Fig) were determined on four different biological materials. Because IC50 are known to be affected by the actual absolute activity of the tested enzyme, these IC50 were quantified using similar levels of SDH enzyme activity during the assay. IC50 values were determined using the AAT Bioquest IC50 calculator tool (https://www.aatbio.com/tools/ic50-calculator).

[3] = molecular target: T2, quinol cytochrome c reductase (CIII) (Homo sapiens, UniProt P00156); test: Antimycin-sensitive quinol cytochrome c reductase (QCCR) activity, freeze-thawed HEK cells; assay type: biochemical
T2 construct: the pellets were permeabilized by two freeze-thaw cycles before enzyme assays; endogenous in cells; host or cells: HEK293, freeze-thawed cell pellets
Method: as §1, §2, §3

[4] = molecular target: succinate cytochrome c reductase (SDH+CIII) (Homo sapiens, UniProt O14521+P21912+Q99643); test: Malonate-sensitive succinate cytochrome c reductase (SCCR) activity, freeze-thawed HEK cells; assay type: biochemical; parameters: the pellets were permeabilized by two freeze-thaw cycles before enzyme assays; endogenous in cells; host or cells: HEK293, freeze-thawed cell pellets; settings: IC50 SCCR, no exogenous quinone, n ≥ 3
Method: as §1, §2, §3

Chain of succinate cytochrome c reductase (SDH+CIII) (P21912 29-280): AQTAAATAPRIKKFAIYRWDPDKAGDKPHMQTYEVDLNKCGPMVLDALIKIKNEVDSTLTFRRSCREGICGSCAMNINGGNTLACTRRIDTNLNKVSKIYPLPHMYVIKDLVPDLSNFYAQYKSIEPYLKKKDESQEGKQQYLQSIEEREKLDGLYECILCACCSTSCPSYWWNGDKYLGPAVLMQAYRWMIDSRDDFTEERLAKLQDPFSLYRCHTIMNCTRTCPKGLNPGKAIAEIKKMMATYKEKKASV
Chain of succinate cytochrome c reductase (SDH+CIII) (Q99643 30-169): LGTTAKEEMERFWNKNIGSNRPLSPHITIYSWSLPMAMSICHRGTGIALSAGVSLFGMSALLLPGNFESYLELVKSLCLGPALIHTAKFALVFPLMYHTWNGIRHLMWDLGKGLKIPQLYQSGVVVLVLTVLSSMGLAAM
Chain of succinate cytochrome c reductase (SDH+CIII) (O14521 57-159): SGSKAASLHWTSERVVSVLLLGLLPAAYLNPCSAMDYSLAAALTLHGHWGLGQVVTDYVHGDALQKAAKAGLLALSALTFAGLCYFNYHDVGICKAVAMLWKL
Chain of succinate cytochrome c reductase (SDH+CIII) (P31040 43-664 partner): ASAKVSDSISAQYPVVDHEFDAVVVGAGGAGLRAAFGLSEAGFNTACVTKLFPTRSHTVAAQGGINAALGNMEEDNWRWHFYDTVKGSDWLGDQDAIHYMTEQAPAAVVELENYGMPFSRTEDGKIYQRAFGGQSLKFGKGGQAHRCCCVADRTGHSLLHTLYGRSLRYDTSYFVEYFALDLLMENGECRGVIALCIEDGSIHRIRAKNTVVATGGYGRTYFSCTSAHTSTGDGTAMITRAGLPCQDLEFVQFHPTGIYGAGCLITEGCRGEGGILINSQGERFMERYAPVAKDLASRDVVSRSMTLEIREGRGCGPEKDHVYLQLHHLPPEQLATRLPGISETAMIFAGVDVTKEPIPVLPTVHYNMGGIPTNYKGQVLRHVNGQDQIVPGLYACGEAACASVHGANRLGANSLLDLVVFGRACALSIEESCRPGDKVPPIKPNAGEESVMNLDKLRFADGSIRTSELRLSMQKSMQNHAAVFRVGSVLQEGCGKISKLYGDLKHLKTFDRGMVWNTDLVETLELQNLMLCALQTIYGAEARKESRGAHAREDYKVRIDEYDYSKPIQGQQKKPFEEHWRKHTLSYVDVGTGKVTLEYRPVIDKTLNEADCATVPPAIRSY

In the case of `O=C(NCCc1ncc(C(F)(F)F)cc1Cl)c1ccccc1C(F)(F)F` [Fluopyram, fluopyram], the “ADI (Acceptable Daily Intake)” value [1] is given as 0.012 mg/kg/day, the IC50 [2] is given as over 500 µM and the IC50 [3] is given as over 500 µM. It also gave an IC50 [4] of 160 µM.
